Experimental data reported in the supplement of paper PMC12406974.

Columns and labels:
Test in all cases: maximum observed lethal fraction; higher = more cell death
U2OS BAX/BAK1 DKO = tested on: U2OS BAX/BAK1 DKO
U2OS BCL2L12-KO = tested on: U2OS BCL2L12-KO
U2OS PTBP1-KO = tested on: U2OS PTBP1-KO
U2OS = tested on: U2OS
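Note: FLICK assay: SYTOX Green fluorescence of dead cells tracked over time after drugging in 96-well plates, with total cell counts taken from Triton X-100 lysed wells.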

SMILES | maximum observed lethal fraction (U2OS BAX/BAK1 DKO; 0.01 µM) | maximum observed lethal fraction (U2OS BAX/BAK1 DKO; 0.0316 µM) | maximum observed lethal fraction (U2OS BAX/BAK1 DKO; 0.1 µM) | maximum observed lethal fraction (U2OS BAX/BAK1 DKO; 0.316 µM) | maximum observed lethal fraction (U2OS BAX/BAK1 DKO; 1 µM) | maximum observed lethal fraction (U2OS BAX/BAK1 DKO; 3.16 µM) | maximum observed lethal fraction (U2OS BAX/BAK1 DKO; 10 µM) | maximum observed lethal fraction (U2OS BCL2L12-KO; 0.01 µM) | maximum observed lethal fraction (U2OS BCL2L12-KO; 0.0316 µM) | maximum observed lethal fraction (U2OS BCL2L12-KO; 0.1 µM) | maximum observed lethal fraction (U2OS BCL2L12-KO; 0.316 µM) | maximum observed lethal fraction (U2OS BCL2L12-KO; 1 µM) | maximum observed lethal fraction (U2OS BCL2L12-KO; 3.16 µM) | maximum observed lethal fraction (U2OS BCL2L12-KO; 10 µM) | maximum observed lethal fraction (U2OS PTBP1-KO; 0.01 µM) | maximum observed lethal fraction (U2OS PTBP1-KO; 0.0316 µM) | maximum observed lethal fraction (U2OS PTBP1-KO; 0.1 µM) | maximum observed lethal fraction (U2OS PTBP1-KO; 0.316 µM) | maximum observed lethal fraction (U2OS PTBP1-KO; 1 µM) | maximum observed lethal fraction (U2OS PTBP1-KO; 3.16 µM) | maximum observed lethal fraction (U2OS PTBP1-KO; 10 µM) | maximum observed lethal fraction (U2OS; 0.01 µM) | maximum observed lethal fraction (U2OS; 0.0316 µM) | maximum observed lethal fraction (U2OS; 0.1 µM) | maximum observed lethal fraction (U2OS; 0.316 µM) | maximum observed lethal fraction (U2OS; 1 µM) | maximum observed lethal fraction (U2OS; 3.16 µM) | maximum observed lethal fraction (U2OS; 10 µM) | maximum observed lethal fraction (U2OS BAX/BAK1 DKO; 31.6 µM) | maximum observed lethal fraction (U2OS BAX/BAK1 DKO; 100 µM) | maximum observed lethal fraction (U2OS BCL2L12-KO; 31.6 µM) | maximum observed lethal fraction (U2OS BCL2L12-KO; 100 µM) | maximum observed lethal fraction (U2OS PTBP1-KO; 31.6 µM) | maximum observed lethal fraction (U2OS PTBP1-KO; 100 µM) | maximum observed lethal fraction (U2OS; 31.6 µM) | maximum observed lethal fraction (U2OS; 100 µM)
CC(=O)c1c(C)c2cnc(Nc3ccc(N4CCNCC4)cn3)nc2n(C2CCCC2)c1=O [Palbociclib] | 0.0642 | 0.0646 | 0.0686 | 0.0764 | 0.0783 | 0.0842 | 0.0911 | 0.0599 | 0.0645 | 0.0667 | 0.0699 | 0.0732 | 0.0829 | 0.221 | 0.0641 | 0.0713 | 0.0739 | 0.0802 | 0.0817 | 0.0847 | 0.109 | 0.0597 | 0.068 | 0.0645 | 0.0683 | 0.0747 | 0.09 | 0.173 | – | – | – | – | – | – | – | –
CNCc1ccc(-c2[nH]c3cc(F)cc4c3c2CCNC4=O)cc1 [Rucaparib] | – | – | 0.0512 | 0.0548 | 0.0528 | 0.06 | 0.0652 | – | – | 0.065 | 0.0637 | 0.0652 | 0.0687 | 0.0753 | – | – | 0.0657 | 0.065 | 0.0647 | 0.0685 | 0.0766 | – | – | 0.0508 | 0.0538 | 0.0545 | 0.057 | 0.0608 | 0.0926 | 0.178 | 0.195 | 0.886 | 0.18 | 0.683 | 0.278 | 0.81
CN[C@@H]1C[C@H]2O[C@@](C)([C@@H]1OC)n1c3ccccc3c3c4c(c5c6ccccc6n2c5c31)C(=O)NC4 [Staurosporine] | 0.104 | 0.113 | 0.125 | 0.121 | 0.125 | 0.136 | 0.254 | 0.437 | 0.593 | 0.936 | 0.877 | 0.736 | 0.725 | 0.894 | 0.476 | 0.77 | 0.93 | 0.878 | 0.737 | 0.781 | 0.864 | 0.508 | 0.709 | 0.903 | 0.819 | 0.71 | 0.642 | 0.811 | – | – | – | – | – | – | – | –
